Source: PMC6379152 (Cellular microbiology, 2018)

Tested on: rHSGGT1 (HSGGT1)
Assay: pNA release at […] nm, Michaelis-Menten fit
Format: biochemical, Helicobacter saguini
Details: 20 mM glycylglycine as acceptor; Tris-HCl pH 8; 37 C; mean of three batches

Structure (SMILES): N[C@@H](CCC(=O)Nc1ccc([N+](=O)[O-])cc1)C(=O)O [GpNA, L-y-glutamyl-p nitroanilide]
- Km: 12.3 ± 2.35 µM
